Experimental data as given in patent publication US12403106B2, “Prophylactic skin treatment for radiation therapy” (THE BOARD OF TRUSTEES OF THE LELAND STANFORD JUNIOR …, priority 2019, dated 2025).

Assays:
irradiated scalp = assay: Laser Doppler analysis of perfusion of irradiated scalp, DFO injection (Example 1); assay type: in vivo, mice; details: mean±SE
Method: (§1) Adult 60-day-old male Cr1:NU-Fox1NU immunocompromised mice were used for experiments in this study. Twelve mice were treated with a total of 30 Gy external beam radiation, delivered as six fractionated doses of 5 Gy each over 12 days, followed by 5 weeks of recovery. An additional six non-irradiated mice were used as healthy controls for laser Doppler analysis (LDA) and skin analysis. Irradiated mice were divided into two treatment groups: a DFO experimental group and saline control group. Following recovery, mice underwent injection of either DFO (1 mg in 100 μl saline) or 100 μl of saline alone beneath the dermis every other day for a total of seven treatments.
Laser Doppler Analysis (“LDA”) was performed to measure perfusion at the irradiated site using a Perimed PIM 3 laser Doppler perfusion imager (Datavagen, Sweden). The signal generated by the LDA, laser Doppler perfusion index (LDPI), was used for comparative purposes. LDPI is a product of the blood cell velocity and concentration and is represented by a color spectrum, with black/dark blue representing low perfusion and red representing high perfusion. LDA was performed prior to irradiation, following completion of irradiation and recovery, and then twenty-four hours following each treatment with DFO or saline. […]
Five images were taken of each mouse, and the average LDPI of the five images was recorded. […]

fat grafts = assay: Fat graft volume retention by micro-CT in DFO preconditioned irradiated scalp (Example 1); assay type: in vivo; details: DFO preconditioned irradiated mice, mean±SE
Method: as §1
After irradiation, fat grafting was performed on the irradiated mice. After informed consent was obtained, lipoaspirate was obtained from three healthy donors, with no other medical co-morbidities under an approved IRB protocol #2188.
Lipoaspirate was allowed to settle for 15 minutes for layers to separate by gravity sedimentation, and then oil and blood layers were removed by vacuum aspiration. The remaining fat layer was centrifuged at 1300 ref for 3 minutes at 4° C. Any remaining oil and blood was again removed and the remaining fat was transferred into lee syringes for injection through a 14-gauge needle. Fat grafting was performed beneath the scalp by creating a subcutaneous tunnel with the needle and then injecting […] of lipoaspirate in retrograde fashion while pulling the needle out.
Mice were also imaged using a MicroCAT-11 in vivo X-Ray micro-CT scanner (Imtek, Inc.; Knoxville, Tenn.) two days after fat graft injection for baseline volume measurements. Fat graft volume retention was then analyzed every two weeks over a total of 8 weeks using microcomputed tomography, and images were reconstructed as three-dimensional surfaces through cubic-spline interpolation. All reconstructions were performed by a single investigator to avoid inter-observer variability.

CC(=O)N(O)CCCCCNC(=O)CCC(=O)N(O)CCCCCNC(=O)CCC(=O)N(O)CCCCCN [DFO, deferoxamine]
laser Doppler perfusion index at the scalp (irradiated scalp; 30 Gy irradiated scalp, 1 mg DFO injected beneath the dermis every other day, after four treatments): 205.08±2.30 LDPI
laser Doppler perfusion index following fat grafting (irradiated scalp; two weeks following injection of fat grafts, DFO preconditioned mice): 86.33±2.00 LDPI
fat graft volume retention (fat grafts; two weeks after fat grafting): 89.24%
fat graft volume retention (fat grafts; week 6 after fat grafting): 73.17%
fat graft volume retention (fat grafts; week 8 after fat grafting): 71.75%
